# Laboratory results taken from the OligoGym collection.
# Oligonucleotides are given in HELM: sugar(base)linkage, 5' to 3'; d 2'-deoxyribose, r ribose, m 2'-O-methylribose, p phosphate. ss, as = sense and antisense strand
# Molecular target: TMEM63B
# Experiment: reporter assay of Huesken 2005
# Conditions: siRNA
# Also: test concentration or dose not given here.
row,Substance,normalised inhibition (eCFP-eYFP dual reporter)
1,RNA1{r(A)p.r(A)p.r(C)p.r(C)p.r(A)p.r(C)p.r(C)p.r(A)p.r(U)p.r(U)p.r(G)p.r(C)p.r(C)p.r(A)p.r(A)p.r(C)p.r(U)p.r(U)p.r(G)p.d(T)p.d(T)}|RNA2{r(C)p.r(A)p.r(A)p.r(G)p.r(U)p.r(U)p.r(G)p.r(G)p.r(C)p.r(A)p.r(A)p.r(U)p.r(G)p.r(G)p.r(U)p.r(G)p.r(G)p.r(U)p.r(U)p.d(C)p.d(T)}$$$RNA1{StrandType:ss}|RNA2{StrandType:as}$,34.2%
2,RNA1{r(A)p.r(A)p.r(C)p.r(G)p.r(C)p.r(C)p.r(A)p.r(U)p.r(G)p.r(G)p.r(A)p.r(C)p.r(C)p.r(U)p.r(G)p.r(C)p.r(U)p.r(G)p.r(C)p.d(T)p.d(T)}|RNA2{r(G)p.r(C)p.r(A)p.r(G)p.r(C)p.r(A)p.r(G)p.r(G)p.r(U)p.r(C)p.r(C)p.r(A)p.r(U)p.r(G)p.r(G)p.r(C)p.r(G)p.r(U)p.r(U)p.d(G)p.d(C)}$$$RNA1{StrandType:ss}|RNA2{StrandType:as}$,27.2%
3,RNA1{r(A)p.r(A)p.r(C)p.r(G)p.r(U)p.r(G)p.r(C)p.r(C)p.r(U)p.r(A)p.r(C)p.r(C)p.r(A)p.r(U)p.r(G)p.r(A)p.r(U)p.r(C)p.r(A)p.d(T)p.d(T)}|RNA2{r(U)p.r(G)p.r(A)p.r(U)p.r(C)p.r(A)p.r(U)p.r(G)p.r(G)p.r(U)p.r(A)p.r(G)p.r(G)p.r(C)p.r(A)p.r(C)p.r(G)p.r(U)p.r(U)p.d(C)p.d(T)}$$$RNA1{StrandType:ss}|RNA2{StrandType:as}$,80.1%
4,RNA1{r(A)p.r(A)p.r(G)p.r(A)p.r(U)p.r(C)p.r(A)p.r(A)p.r(G)p.r(A)p.r(A)p.r(G)p.r(C)p.r(A)p.r(U)p.r(U)p.r(U)p.r(U)p.r(G)p.d(T)p.d(T)}|RNA2{r(C)p.r(A)p.r(A)p.r(A)p.r(A)p.r(U)p.r(G)p.r(C)p.r(U)p.r(U)p.r(C)p.r(U)p.r(U)p.r(G)p.r(A)p.r(U)p.r(C)p.r(U)p.r(U)p.d(T)p.d(T)}$$$RNA1{StrandType:ss}|RNA2{StrandType:as}$,61.7%
5,RNA1{r(A)p.r(A)p.r(G)p.r(G)p.r(A)p.r(G)p.r(A)p.r(A)p.r(C)p.r(G)p.r(U)p.r(G)p.r(C)p.r(C)p.r(U)p.r(A)p.r(C)p.r(C)p.r(A)p.d(T)p.d(T)}|RNA2{r(U)p.r(G)p.r(G)p.r(U)p.r(A)p.r(G)p.r(G)p.r(C)p.r(A)p.r(C)p.r(G)p.r(U)p.r(U)p.r(C)p.r(U)p.r(C)p.r(C)p.r(U)p.r(U)p.d(G)p.d(C)}$$$RNA1{StrandType:ss}|RNA2{StrandType:as}$,70.2%
6,RNA1{r(A)p.r(C)p.r(A)p.r(G)p.r(C)p.r(C)p.r(A)p.r(U)p.r(G)p.r(A)p.r(C)p.r(C)p.r(G)p.r(G)p.r(U)p.r(A)p.r(U)p.r(G)p.r(A)p.d(T)p.d(T)}|RNA2{r(U)p.r(C)p.r(A)p.r(U)p.r(A)p.r(C)p.r(C)p.r(G)p.r(G)p.r(U)p.r(C)p.r(A)p.r(U)p.r(G)p.r(G)p.r(C)p.r(U)p.r(G)p.r(U)p.d(C)p.d(C)}$$$RNA1{StrandType:ss}|RNA2{StrandType:as}$,56.4%
7,RNA1{r(A)p.r(C)p.r(C)p.r(A)p.r(G)p.r(G)p.r(U)p.r(G)p.r(G)p.r(U)p.r(G)p.r(G)p.r(C)p.r(C)p.r(G)p.r(C)p.r(G)p.r(C)p.r(C)p.d(T)p.d(T)}|RNA2{r(G)p.r(G)p.r(C)p.r(G)p.r(C)p.r(G)p.r(G)p.r(C)p.r(C)p.r(A)p.r(C)p.r(C)p.r(A)p.r(C)p.r(C)p.r(U)p.r(G)p.r(G)p.r(U)p.d(T)p.d(C)}$$$RNA1{StrandType:ss}|RNA2{StrandType:as}$,57.6%
8,RNA1{r(A)p.r(C)p.r(C)p.r(C)p.r(U)p.r(G)p.r(C)p.r(U)p.r(G)p.r(C)p.r(U)p.r(G)p.r(U)p.r(G)p.r(G)p.r(U)p.r(G)p.r(C)p.r(U)p.d(T)p.d(T)}|RNA2{r(A)p.r(G)p.r(C)p.r(A)p.r(C)p.r(C)p.r(A)p.r(C)p.r(A)p.r(G)p.r(C)p.r(A)p.r(G)p.r(C)p.r(A)p.r(G)p.r(G)p.r(G)p.r(U)p.d(G)p.d(G)}$$$RNA1{StrandType:ss}|RNA2{StrandType:as}$,58.5%
9,RNA1{r(A)p.r(C)p.r(G)p.r(C)p.r(U)p.r(C)p.r(U)p.r(G)p.r(G)p.r(G)p.r(G)p.r(A)p.r(G)p.r(A)p.r(A)p.r(C)p.r(A)p.r(G)p.r(G)p.d(T)p.d(T)}|RNA2{r(C)p.r(C)p.r(U)p.r(G)p.r(U)p.r(U)p.r(C)p.r(U)p.r(C)p.r(C)p.r(C)p.r(C)p.r(A)p.r(G)p.r(A)p.r(G)p.r(C)p.r(G)p.r(U)p.d(G)p.d(T)}$$$RNA1{StrandType:ss}|RNA2{StrandType:as}$,48.3%
10,RNA1{r(A)p.r(C)p.r(G)p.r(G)p.r(A)p.r(C)p.r(A)p.r(C)p.r(A)p.r(G)p.r(A)p.r(C)p.r(U)p.r(U)p.r(C)p.r(C)p.r(A)p.r(G)p.r(U)p.d(T)p.d(T)}|RNA2{r(A)p.r(C)p.r(U)p.r(G)p.r(G)p.r(A)p.r(A)p.r(G)p.r(U)p.r(C)p.r(U)p.r(G)p.r(U)p.r(G)p.r(U)p.r(C)p.r(C)p.r(G)p.r(U)p.d(G)p.d(A)}$$$RNA1{StrandType:ss}|RNA2{StrandType:as}$,85.7%
11,RNA1{r(A)p.r(C)p.r(U)p.r(A)p.r(C)p.r(A)p.r(A)p.r(G)p.r(C)p.r(G)p.r(G)p.r(G)p.r(A)p.r(G)p.r(A)p.r(A)p.r(G)p.r(G)p.r(A)p.d(T)p.d(T)}|RNA2{r(U)p.r(C)p.r(C)p.r(U)p.r(U)p.r(C)p.r(U)p.r(C)p.r(C)p.r(C)p.r(G)p.r(C)p.r(U)p.r(U)p.r(G)p.r(U)p.r(A)p.r(G)p.r(U)p.d(C)p.d(T)}$$$RNA1{StrandType:ss}|RNA2{StrandType:as}$,72%
12,RNA1{r(A)p.r(C)p.r(U)p.r(U)p.r(G)p.r(A)p.r(A)p.r(A)p.r(U)p.r(C)p.r(A)p.r(G)p.r(G)p.r(G)p.r(A)p.r(A)p.r(C)p.r(A)p.r(A)p.d(T)p.d(T)}|RNA2{r(U)p.r(U)p.r(G)p.r(U)p.r(U)p.r(C)p.r(C)p.r(C)p.r(U)p.r(G)p.r(A)p.r(U)p.r(U)p.r(U)p.r(C)p.r(A)p.r(A)p.r(G)p.r(U)p.d(T)p.d(G)}$$$RNA1{StrandType:ss}|RNA2{StrandType:as}$,34.4%
13,RNA1{r(A)p.r(G)p.r(A)p.r(G)p.r(A)p.r(G)p.r(G)p.r(A)p.r(A)p.r(G)p.r(A)p.r(A)p.r(G)p.r(G)p.r(C)p.r(C)p.r(G)p.r(A)p.r(G)p.d(T)p.d(T)}|RNA2{r(C)p.r(U)p.r(C)p.r(G)p.r(G)p.r(C)p.r(C)p.r(U)p.r(U)p.r(C)p.r(U)p.r(U)p.r(C)p.r(C)p.r(U)p.r(C)p.r(U)p.r(C)p.r(U)p.d(G)p.d(C)}$$$RNA1{StrandType:ss}|RNA2{StrandType:as}$,49.4%
14,RNA1{r(A)p.r(G)p.r(A)p.r(G)p.r(G)p.r(C)p.r(G)p.r(C)p.r(A)p.r(A)p.r(C)p.r(G)p.r(U)p.r(G)p.r(A)p.r(A)p.r(G)p.r(C)p.r(G)p.d(T)p.d(T)}|RNA2{r(C)p.r(G)p.r(C)p.r(U)p.r(U)p.r(C)p.r(A)p.r(C)p.r(G)p.r(U)p.r(U)p.r(G)p.r(C)p.r(G)p.r(C)p.r(C)p.r(U)p.r(C)p.r(U)p.d(C)p.d(G)}$$$RNA1{StrandType:ss}|RNA2{StrandType:as}$,35.7%
15,RNA1{r(A)p.r(G)p.r(C)p.r(A)p.r(G)p.r(G)p.r(U)p.r(G)p.r(G)p.r(A)p.r(G)p.r(G)p.r(C)p.r(C)p.r(A)p.r(U)p.r(U)p.r(G)p.r(A)p.d(T)p.d(T)}|RNA2{r(U)p.r(C)p.r(A)p.r(A)p.r(U)p.r(G)p.r(G)p.r(C)p.r(C)p.r(U)p.r(C)p.r(C)p.r(A)p.r(C)p.r(C)p.r(U)p.r(G)p.r(C)p.r(U)p.d(C)p.d(A)}$$$RNA1{StrandType:ss}|RNA2{StrandType:as}$,77.2%
16,RNA1{r(A)p.r(G)p.r(C)p.r(C)p.r(U)p.r(A)p.r(C)p.r(C)p.r(C)p.r(C)p.r(A)p.r(A)p.r(C)p.r(U)p.r(G)p.r(C)p.r(A)p.r(C)p.r(A)p.d(T)p.d(T)}|RNA2{r(U)p.r(G)p.r(U)p.r(G)p.r(C)p.r(A)p.r(G)p.r(U)p.r(U)p.r(G)p.r(G)p.r(G)p.r(G)p.r(U)p.r(A)p.r(G)p.r(G)p.r(C)p.r(U)p.d(T)p.d(C)}$$$RNA1{StrandType:ss}|RNA2{StrandType:as}$,70.7%
17,RNA1{r(A)p.r(G)p.r(C)p.r(U)p.r(C)p.r(A)p.r(G)p.r(G)p.r(G)p.r(G)p.r(A)p.r(U)p.r(G)p.r(A)p.r(G)p.r(C)p.r(C)p.r(C)p.r(C)p.d(T)p.d(T)}|RNA2{r(G)p.r(G)p.r(G)p.r(G)p.r(C)p.r(U)p.r(C)p.r(A)p.r(U)p.r(C)p.r(C)p.r(C)p.r(C)p.r(U)p.r(G)p.r(A)p.r(G)p.r(C)p.r(U)p.d(C)p.d(C)}$$$RNA1{StrandType:ss}|RNA2{StrandType:as}$,43%
18,RNA1{r(A)p.r(G)p.r(G)p.r(A)p.r(G)p.r(G)p.r(A)p.r(U)p.r(G)p.r(A)p.r(U)p.r(C)p.r(U)p.r(G)p.r(G)p.r(U)p.r(G)p.r(A)p.r(A)p.d(T)p.d(T)}|RNA2{r(U)p.r(U)p.r(C)p.r(A)p.r(C)p.r(C)p.r(A)p.r(G)p.r(A)p.r(U)p.r(C)p.r(A)p.r(U)p.r(C)p.r(C)p.r(U)p.r(C)p.r(C)p.r(U)p.d(T)p.d(G)}$$$RNA1{StrandType:ss}|RNA2{StrandType:as}$,77.4%

# Molecular target: Mmp7 (rat)
# Experiment: reporter assay of Huesken 2005
# Conditions: siRNA
row,Substance,normalised inhibition (eCFP-eYFP dual reporter)
1,RNA1{r(U)p.r(U)p.r(G)p.r(C)p.r(C)p.r(G)p.r(G)p.r(A)p.r(G)p.r(A)p.r(C)p.r(U)p.r(G)p.r(G)p.r(A)p.r(A)p.r(A)p.r(G)p.r(C)p.d(T)p.d(T)}|RNA2{r(G)p.r(C)p.r(U)p.r(U)p.r(U)p.r(C)p.r(C)p.r(A)p.r(G)p.r(U)p.r(C)p.r(U)p.r(C)p.r(C)p.r(G)p.r(G)p.r(C)p.r(A)p.r(A)p.d(A)p.d(C)}$$$RNA1{StrandType:ss}|RNA2{StrandType:as}$,1.9%
2,RNA1{r(U)p.r(U)p.r(U)p.r(A)p.r(C)p.r(C)p.r(U)p.r(U)p.r(C)p.r(A)p.r(C)p.r(G)p.r(A)p.r(C)p.r(U)p.r(C)p.r(U)p.r(A)p.r(A)p.d(T)p.d(T)}|RNA2{r(U)p.r(U)p.r(A)p.r(G)p.r(A)p.r(G)p.r(U)p.r(C)p.r(G)p.r(U)p.r(G)p.r(A)p.r(A)p.r(G)p.r(G)p.r(U)p.r(A)p.r(A)p.r(A)p.d(A)p.d(T)}$$$RNA1{StrandType:ss}|RNA2{StrandType:as}$,110%
